These results are taken from patent US20100210649A1, “PYRIDAZINONES AND FURAN-CONTAINING COMPOUNDS” (Sloan-Kettering Institute for Cancer Research, priority 2006, published 2010).

pIC50: −log10 of the molar value. Like-named read-outs stand apart in the source and are kept apart here.

One may read the pIC50 as the negative decadic logarithm of the IC50, by convention in mol/L. Usually inhibition stands for the drop in the measured response relative to a control, in per cent.

For one assay, the system named is H820. Briefly: Dose response study (Alamar Blue), H820. The format is cell-based. As to conditions: Homo sapiens, read-out: IC50 H820. The protocol: (§1) Dose response studies against 34 compounds from the pyridazinone and phenylfuran-carboxamide class were conducted. […] In addition, Tarceva was included in these dose response studies.
(§2) The dose response studies were done with the following standard procedure. First, the cells were counted and dispensed at 250 cells/well into 384-well microplates with compound. The cells were incubated for 48 hours at 37 C to complete treatment, and then alamar blue was added for an additional 48 hours. Finally, alamar blue reduction was measured and the data was loaded into ORIS, our data screening acquisition platform.

In another assay the test system is H1650. Briefly: Non Small Cell Lung Cancer proliferation assay (Alamar Blue reduction), H1650. In kind it is cell-based, human. As to conditions: for pIC50: NCI-H1650, 48 h, 12 point doubling dilution 10 uM to 5 nM, 48 h treatment, alamar blue additional 48 h, read-out: IC50 H1650. The procedure, abridged:
(§3)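 Viability after 48 hours of drug exposure at 37° C is scored by Alamar Blue reduction over a subsequent 48 hours, read at 530/590 nm. DMSO-only wells (1% final) define the high control.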
For orientation: Resazurin is reduced to fluorescent resorufin, in cell work by metabolically active cells.

Another assay concerns PC9. Briefly: Dose response study (Alamar Blue), PC9. In kind it is cell-based. As to conditions: Homo sapiens, read-out: IC50 PC9. The method, then:
as §1, §2

The test system of a further assay is H3255. Briefly: Non Small Cell Lung Cancer proliferation assay (Alamar Blue reduction), H3255. The following applies: for pIC50: NCI-H3255, 48 h, 12 point doubling dilution 10 uM to 5 nM, 48 h treatment, alamar blue additional 48 h, read-out: IC50 H3255. In kind it is cell-based, human. The gist of the method: as §3
A further assay relates to H2444. Briefly: Dose response study (Alamar Blue), H2444. The format is cell-based. As to conditions: Homo sapiens, read-out: IC50 H2444. The method, then: as §1, §2
The next assay relates to H23. Briefly: Dose response study (Alamar Blue), H23. The format is cell-based. The following applies: Homo sapiens, read-out: IC50 H23. The method, then:
as §1, §2

Another assay has as its system H460. Briefly: Dose response study (Alamar Blue), H460. In kind it is cell-based. The following applies: Homo sapiens, read-out: IC50 H460. The method, then:
as §1, §2

In assay [1] the test system is HPL1D (human peripheral lung epithelial) cell line. Briefly: Cell proliferation / dose response (Alamar Blue), HPL1D. In kind it is cell-based. The following applies: read-out: IC50 HPL1D. The method, then: WI-38: human lung fibroblast cell line. […] WT: wildtype; WT*: over-expressed wildtype. Dose response studies against 34 compounds from the pyridazinone and phenylfuran-carboxamide class were conducted. […] In addition, Tarceva was included in these dose response studies. The dose response studies were done with the following standard procedure. […] The cells were incubated for 48 hours at 37 C to complete treatment, and then alamar blue was added for an additional 48 hours. Finally, alamar blue reduction was measured and the data was loaded into ORIS, our data screening acquisition platform.

The next assay relates to A549. Briefly: Dose response study (Alamar Blue), A549. As to conditions: Homo sapiens, read-out: IC50 A549. The format is cell-based. The method, then:
as §1, §2

The subject of the next assay is H2030. Briefly: Non Small Cell Lung Cancer proliferation assay (Alamar Blue reduction), H2030. The format is cell-based, human. As to conditions: for pIC50: NCI-H2030, 48 h, 12 point doubling dilution 10 uM to 5 nM, 48 h treatment, alamar blue additional 48 h, read-out: IC50 H2030. The gist of the method:
as §3

The mark [2] stands for this setting: NCI-H820, H820, 12 point doubling dilution 10 uM to 5 nM, 48 h treatment, alamar blue additional 48 h.
Setting [3] is: Homo sapiens, NCI-H1650, dose response 10 M to 5 nM, IC50, read-out: Dose Response (uM) H1650.
[4] abbreviates: PC-9, PC9, 12 point doubling dilution 10 uM to 5 nM, 48 h treatment, alamar blue additional 48 h.
[5] abbreviates: Homo sapiens, NCI-H3255, dose response 10 M to 5 nM, IC50, read-out: Dose Response (uM) H3255.
Where [6] appears, read: NCI-H2444, H2444, 12 point doubling dilution 10 uM to 5 nM, 48 h treatment, alamar blue additional 48 h.
[7] abbreviates: NCI-H23, H23, 12 point doubling dilution 10 uM to 5 nM, 48 h treatment, alamar blue additional 48 h.
[8] abbreviates: NCI-H460, H460, 12 point doubling dilution 10 uM to 5 nM, 48 h treatment, alamar blue additional 48 h.
The mark [9] stands for this setting: HPL1D, 12 point doubling dilution 10 uM to 5 nM, 48 h treatment, alamar blue additional 48 h.
Where [10] appears, read: A549, 12 point doubling dilution 10 uM to 5 nM, 48 h treatment, alamar blue additional 48 h.
The mark [11] stands for this setting: Homo sapiens, NCI-H2030, dose response 10 M to 5 nM, IC50, read-out: Dose Response (uM) H2030.
[12] abbreviates: percentage inhibition, 10 μM compound in 1% DMSO (v/v).

`O=c1c(Br)c(Br)cnn1-c1ccccc1` [compound 257015]: the pIC50 with H820 (setting [2]) is 6.66; in the assay on H1650 (Homo sapiens, H1650), 6.04; in the assay on PC9 (setting [4]), 6.15; in the assay with H3255 (Homo sapiens, H3255) it was 6.12; in the assay with H2444 (setting [6]) it was 6.52; with H23 (setting [7]), 6.64. In addition, the pIC50 in the assay on H460 (setting [8]) was 5.89; in assay [1] (setting [9]), 6.52; in the assay with A549 (setting [10]), 5.92; in the assay on H2030 (Homo sapiens, H2030), 6.51. For the same compound, the results for the IC50 in the assay on H1650 (setting [3]), with H3255 (setting [5]) and with H2030 (setting [11]) were 1.14 µM, 0.62 µM and 0.39 µM, respectively.

As for `O=c1c(Cl)c(Cl)cnn1-c1ccc(C(F)(F)F)cc1` [compound 267060], the pIC50 in the assay with H820 (setting [2]) was 5.83; in the assay with H1650 (Homo sapiens, H1650), 5.40; in the assay on PC9 (setting [4]) it was 5.46; with H3255 (Homo sapiens, H3255), 5.64; with H2444 (setting [6]), 5.90; with H23 (setting [7]) it was 5.97. Besides, the pIC50 in the assay with H460 (setting [8]) is 5.37; in [1] (setting [9]), 6.25; in the assay with A549 (setting [10]) it was 5.27; with H2030 (Homo sapiens, H2030) it was 5.95. Also, the IC50 in the assay on H1650 (setting [3]) was found to be 3.92 µM; with H3255 (setting [5]), 2.27 µM; in the assay with H2030 (setting [11]), 1.09 µM.

For `O=C(Nc1ccc(Cl)cc1)c1ccc([N+](=O)[O-])o1` [compound 98698, 5-nitro-furan-2-carboxylic acid (4-chloro-phenyl)-amide], the negative-log IC50 (pIC50) is 5.74 with H820 (NCI-H820, 48 h); 6.33 in the assay with H1650 (Homo sapiens, H1650); 5.80 in the assay on PC9 (PC-9, 48 h); 5.75 with H3255 (Homo sapiens, H3255); 5.61 with H2444 (NCI-H2444, 48 h); 6.22 with H23 (NCI-H23, 48 h). In addition, the pIC50 with H460 (NCI-H460, 48 h) is 5.79; in assay [1] (48 h) it was below 5.00; in the assay with A549 (A549, 48 h) it was 5.88; in the assay on H2030 (Homo sapiens, H2030), 6.04. The IC50 in the assay with H1650 (Homo sapiens, NCI-H1650, phenylfuran-2-carboxamide SAR summary, read-out: IC50(uM) 1650) stood at 0.38 µM; in the assay on H3255 (Homo sapiens, NCI-H3255, phenylfuran-2-carboxamide SAR summary, read-out: IC50(uM) 3255), 0.95 µM; in the assay on H2030 (Homo sapiens, NCI-H2030, phenylfuran-2-carboxamide SAR summary, read-out: IC50(uM) 2030), 1.12 µM. Moreover, the inhibition at 10 µM in the assay on H1650 (Homo sapiens, NCI-H1650, primary screening, H1650, 10 μM compound in 1% DMSO (v/v), read-out: PRIMARY HTS [%] H1650 (percentage inhibition)) came out at 101%; with H3255 (Homo sapiens, NCI-H3255, primary screening, H3255, 10 μM compound in 1% DMSO (v/v), read-out: PRIMARY HTS [%] H3255 (percentage inhibition)) it was 20%; in the assay on H2030 (Homo sapiens, NCI-H2030, primary screening, H2030, 10 μM compound in 1% DMSO (v/v), read-out: PRIMARY HTS [%] H2030 (percentage inhibition)) it was 17%. Also, in the assay with H1650 (setting [12]), the “CONFIRMATION [%] 1650” value is 133%. In addition, the “CONFIRMATION [%] 3255” value in the assay with H3255 (setting [12]) is given as 118%. For the same compound, the “CONFIRMATION [%] 2030” value in the assay with H2030 (setting [12]) is 98%.

For `O=c1c(Cl)c(Cl)cnn1-c1ccc2c(c1)OCCO2` [compound 267068], the pIC50 was 6.49 with H820 (setting [2]); 5.65 in the assay on H1650 (Homo sapiens, H1650); 6.06 in the assay on PC9 (setting [4]); 5.91 with H3255 (Homo sapiens, H3255); 6.39 with H2444 (setting [6]); 6.54 in the assay on H23 (setting [7]). Also, the pIC50 with H460 (setting [8]) is 5.71; in assay [1] (setting [9]), 6.38; in the assay with A549 (setting [10]), 5.71; with H2030 (Homo sapiens, H2030), 6.33. The IC50 in the assay on H1650 (setting [3]) was determined as 2.33 µM; in the assay with H3255 (setting [5]), 1.2 µM; with H2030 (setting [11]), 1.23 µM.
